One test deals with human Y4/PP1 (Homo sapiens, UniProt P50391). Briefly: NPY Y4/PP1 receptor membrane binding, [125I] human PP. Conditions: membrane protein; 50 pM [125I] human PP; test compounds at 5 µM final concentration; read-out: IC50 (µM) NPY receptor indicated hY4/pp1. How it is done:
(§1) Assays to determine binding affinity for human NPY Y2 and Y4/PP1 receptor subtypes are performed on GF/C Millipore 96-well plates pretreated with 0.02% polyethylenimine. The binding buffer for rat NPY Y2 receptor subtype binding is Krebs-Ringer bicarbonate (pH 7.4) containing 0.01% BSA and 0.005% bacitracin. Samples consist of membrane protein, 25 pM [^125I]PYY and test compounds at 5 µM final concentration. Nonspecific binding is defined by 1 µM NPY. The binding buffer for human Y4/PP1 binding consists of 137 mM NaCl, 5.4 mM KCl, 0.44 mM KH2PO4, 1.26 mM CaCl2, 0.81 mM MgSO4, 20 mM HEPES, 1 mM dithiothreitol, 0.1% bacitracin, 100 mg/l streptomycin sulfate, 1 mg/l aprotinin, 10 mg/ml soybean trypsin inhibitor and 0.3% BSA, pH 7.4. Samples consist of membrane protein, 50 pM human [^125I] human PP (hPP:NEN DuPont, Boston MA) and test compounds diluted to a final concentration of 5 µM. One µM hPP is used to define nonspecific binding. After a 2 hour incubation at room temperature with constant mixing, the samples are aspirated on a vacuum manifold, and rinsed with ice-cold binding buffer. The amount of radioactivity in each well is quantitated with either gamma counting or liquid scintillation.

The next test addresses T1, human NPY Y2 (Homo sapiens, UniProt P49146).
T1 sequence (P49146 1-381): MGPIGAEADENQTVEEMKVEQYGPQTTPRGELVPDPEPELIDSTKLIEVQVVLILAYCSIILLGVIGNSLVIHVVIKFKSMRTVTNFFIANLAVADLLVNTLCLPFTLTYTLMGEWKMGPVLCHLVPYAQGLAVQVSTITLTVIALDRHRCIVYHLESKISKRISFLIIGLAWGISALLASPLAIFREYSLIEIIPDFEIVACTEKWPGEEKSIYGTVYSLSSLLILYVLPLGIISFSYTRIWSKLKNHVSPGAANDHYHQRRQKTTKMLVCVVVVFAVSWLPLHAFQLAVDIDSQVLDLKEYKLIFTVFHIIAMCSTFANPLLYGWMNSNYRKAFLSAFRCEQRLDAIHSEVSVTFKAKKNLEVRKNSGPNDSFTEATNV
Briefly: NPY Y2 receptor membrane binding, [125I]PYY. Conditions: membrane protein; 25 pM [125I]PYY; test compounds at 5 µM final concentration; read-out: IC50 (µM) NPY receptor indicated hY2. The method, then:
as §1, with “The binding buffer for rat NPY Y2 receptor subtype binding is Krebs-Ringer bicarbonate (pH 7.4) containing 0.01% BSA and 0.005% bacitracin.” left out

Test [1] deals with T2, human NPY Y1 receptor subtype (Homo sapiens, UniProt P25929).
T2 construct: host or cells: SK-N-MC cells
T2 sequence (P25929 1-384): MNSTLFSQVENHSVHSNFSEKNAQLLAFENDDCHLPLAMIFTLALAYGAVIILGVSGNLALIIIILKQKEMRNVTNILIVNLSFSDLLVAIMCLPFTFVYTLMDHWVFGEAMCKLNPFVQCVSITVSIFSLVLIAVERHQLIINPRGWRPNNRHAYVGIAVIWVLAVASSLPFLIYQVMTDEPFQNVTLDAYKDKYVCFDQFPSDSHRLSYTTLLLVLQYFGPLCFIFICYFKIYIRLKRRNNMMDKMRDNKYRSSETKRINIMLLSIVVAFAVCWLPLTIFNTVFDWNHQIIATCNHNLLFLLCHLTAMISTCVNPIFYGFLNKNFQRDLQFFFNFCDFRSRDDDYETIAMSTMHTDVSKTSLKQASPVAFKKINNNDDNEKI
As to the kind of experiment: NPY Y1 receptor binding, [125I]PYY on SK-N-MC cells. Conditions: test compounds at 5 µM final concentration, [125I]PYY about 50 pM, read-out: IC50 (µM) NPY receptor indicated hY1. How it is done:
For instance, test compounds antagonistic to human NPY Y1 receptor subtype can be identified by a modified method of Gordon et al., J. Neurochem. 55:506-513,(1990), wherein SK-N-MC cells (ATCC, Rockville, ND) are plated in 24-well plates. Once confluent, the cells are rinsed with Dulbecco's phosphate buffered saline (DPBS). Cells are then preincubated in binding buffer containing serum-free DMEM, 25 mM HEPES (pH 7.3), 0.5% bovine serum albumin (BSA), 0.1% bacitracin and 0.1mM phenylmethylsulfonyl fluoride for 30 minutes at room temperature. Test compounds at a final concentration of 5 µM, and [^125I] PYY (about 50 pM:NEN-DuPont) are added to the wells, and the cells are incubated for an additional 3 hours at room temperature, followed by rinsing with ice-cold DPBS. Nonspecific binding is defined with 1 µM NPY. After lysing the cells with 1% Triton X-100, the amount of radioactivity in the lysates is quantitated with a gamma counter.

Chain of human Y4/PP1 (P50391 whole entry): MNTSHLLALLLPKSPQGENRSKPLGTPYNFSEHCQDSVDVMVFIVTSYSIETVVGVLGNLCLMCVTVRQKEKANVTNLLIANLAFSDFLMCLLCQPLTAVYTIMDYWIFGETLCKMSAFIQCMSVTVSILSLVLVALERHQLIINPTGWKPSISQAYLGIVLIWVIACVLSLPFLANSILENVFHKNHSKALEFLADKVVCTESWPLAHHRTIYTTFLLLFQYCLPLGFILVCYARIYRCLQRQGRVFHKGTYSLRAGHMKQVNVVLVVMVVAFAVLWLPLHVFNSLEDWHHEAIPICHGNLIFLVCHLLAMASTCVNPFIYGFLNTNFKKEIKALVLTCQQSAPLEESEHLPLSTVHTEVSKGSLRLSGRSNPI

`Cc1ccc(S(=O)(=O)CC(C(=O)c2nc3ccccc3s2)c2ccccc2)cc1` (stereo not drawn) [Compound 6, 1-Benzothizol-2-yl-2-phenyl-3-(toluene-4-sulfonyl)-propan-1-one]: the IC50 (at human Y4/PP1; on human NPY Y2; in test [1]) was above 5 µM throughout.
Consider `Cc1ccc(SCC(C(=O)c2ncc[nH]2)c2ccccc2)cc1` (stereo not drawn) [Compound 2, (1H-Imidazol-2-yl)-2-phenyl-3-p-tolylsulfanyl-propan-1-one], for which the IC50 (on human Y4/PP1; on human NPY Y2; in test [1]) was above 5 µM throughout.
Take `COc1ccc2[nH]c(C(=O)C(CS(=O)(=O)c3ccc(C)cc3)c3ccccc3)nc2c1` (stereo not drawn) [Compound 14, 1-(5-Methoxy-1H-benzoimidazol-2-yl)-2-phenyl-3-(toluene-4-sulfonyl)-propan-1-one]: the IC50 (at human Y4/PP1; at human NPY Y2; in test [1]) was above 5 µM throughout.
For the molecule `O=C(c1nc2ccccc2[nH]1)C(CS(=O)(=O)c1ccccc1)c1ccccc1` (stereo not drawn) [Compound 8, 3-Benzenesulfonyl-1-(1H-benzoimidazol-2-yl)-2-phenyl-propan-1-one], the IC50 (at human Y4/PP1; at human NPY Y2; in test [1]) was above 5 µM in each case.
Consider `Cc1ccc(S(=O)(=O)CC(C(=O)c2nc3cc(C)c(C)cc3[nH]2)c2ccccc2)cc1` (stereo not drawn) [Compound 7, (5,6-Dimethyl-1H-benzoimidazol-2-yl)-2-phenyl-3-(toluene-4-sulfonyl)-propan-1-one], for which the IC50 at human Y4/PP1 is above 5 µM; at human NPY Y2, 8.3 µM; in test [1], above 5 µM.
Regarding `COc1ccc(S(=O)(=O)CC(C(=O)c2nc3ccccc3[nH]2)c2ccccc2)cc1` (stereo not drawn) [Compound 10, 1-(1H-Benzoimidazol-2-yl)-3-(4-methoxy-benzenesulfonyl)-2-phenyl-propan-1-one], the IC50 (on human Y4/PP1; on human NPY Y2; in test [1]) was above 5 µM throughout.

Values taken from patent publication EP1007514B1, “HETEROCYCLIC KETONES AS NPY Y5 ANTAGONISTS” (BAYER CORPORATION, priority 1997, dated 1999).
